Data set [1] in a line: RSSH generation in the presence of glutathione by UPLC-MS. In kind it is physicochemical. Here is the method:
The reaction mixture was quenched with 1% formic acid and analyzed by UPLC-MS. Under these conditions, 42±1 μM of 2b formation is observed. RSSH-derived symmetrical dialkyl polysulfide labeled as S3 and S4 (R^1SSnSR^1, n=1-2), and unsymmetrical dialkyl polysulfide labeled as ′S2 to ′S4 (R^1SSnSR^3, n=0-2) formation are observed. 4-Hydroxyphenyl acetamide, labeled as asterisk, is used as internal standard in these experiments;

Data set [2] relates to H9c2 cells. The data set is described as follows: Cytotoxicity study with SYTOX Green nucleic acid stain. In kind it is cell-based, rat. The settings on record: 24 h exposure, 0-150 μM. As to the method:
H9c2(2-1) embryonic rat heart myoblasts were obtained from the American Type Culture Collection. Cells were grown in Dulbecco's […] (DMEM), supplemented with fetal bovine serum (FBS) 10%, penicillin 100 U/mL and streptomycin 100 μg/mL. They were propagated in T75-flasks, split before reaching 70-80% confluence (usually every day or every second day), and used within 11 passages. Cells were passaged to tissue culture treated 96-well microtiter plates at the specified density in 180 μL volumes and incubated for 24 h.
Cells were seeded at a density of 1×10^4 cells/well. […] Then, 100 μL of media containing 3 μM SYTOX™ Green nucleic acid stain (Invitrogen) was added and the cells were incubated for 2 h before fluorescence readings were obtained at 485Ex/538Em (Step 1). Finally, an additional 100 μL of media containing 3 μM SYTOX™ and 0.2% Triton X-100 was added in order to permeabilize all cells and incubated for 1 h before fluorescence values measured (Step 2). The relative % cells surviving was calculated as a 100% minus the ratio of the fluorescence value of Step 1 over Step 2 (% cells surviving=100%−(FL538 (Step 1)/FL538(Step 2)).
Cells were seeded at a density of 1×10^4 cells/well. […] The relative % cells surviving was calculated as a 100% minus the ratio of the fluorescence value of Step 1 over Step 2 (% cells surviving=100%−(FL538 (Step 1)/FL538(Step 2)).

The test system of data set [3] is H9c2 cells. The experiment in a line: H9c2 cell protection from H2O2-mediated oxidative stress, Cell Counting Kit-8 (CCK-8). The class given is cell-based, rat. Conditions: 2 h pretreatment (7b 50, 100, 150 μM; byproduct 150 μM), then H2O2 200 μM 2 h. On the technique in general: Tetrazolium dyes change colour on reduction, which living cells bring about.
Protocol: Cells were seeded at a density of 5×10^3 cells/well. After 24 h, precursor 7b or byproduct 2b was added at 20 μL volumes using DMSO:H2O (<0.01% DMSO as the vehicle). Cells were incubated for 2 h before media was removed and the cells gently washed with PBS (pH 7.4). Then, 180 μL of fresh media and 20 μL H2O2 diluted into H2O were added and cells were incubated for an additional 2 h. At the completion of H2O2 exposure, each well is carefully washed 3 times with PBS (pH 7.4) before adding 100 μL of media, without-FBS, containing 10% v/v CCK-8 (Dojindo) and incubated for 3 h prior to obtaining absorbance values at 450 nm. The relative % viability was calculated as 100 times the ratio of the Abs450 (pretreated, H2O2-exposed) over Abs450 (vehicle-treated, non H2O2-exposed).
Data set [4] relates to H9c2 cells. The data set is described as follows: H9c2 cell protection from H2O2-mediated oxidative stress, SYTOX Green nucleic acid stain. In kind it is cell-based, rat. Conditions: 2 h pretreatment (150 μM for 8), then H2O2 200 μM. As to the method:
Cells were seeded at a density of 1×10^4 cells/well. After 24 h, precursor 7b or byproduct 2b is added in 20 μL volumes using DMSO: H2O (<0.01% DMSO). Cells were incubated for 2 h before media was removed and the cells gently washed with PBS (pH 7.4). Then, 180 μL of fresh media and 20 μL H2O2 diluted in H2O were added before cells were incubated for an additional 1 h. After removing this media, 100 μL of media containing 3 μM SYTOX™ Green nucleic acid stain was added, and the cells incubated for 2 h before fluorescence readings were obtained at 485Ex/538Em (Step 1). Finally, an additional 100 μL of media containing 3 μM SYTOX™ and 0.2% Triton X-100 was added in order to permeabilize all cells and incubated for 1 h before fluorescence values measured (Step 2). The relative % cells surviving was calculated as a 100% minus the ratio of the fluorescence value of Step 1 over Step 2 (% cells surviving=100%−(FL538 (Step 1)/FL538 (Step 2)). Fluorescence values for vehicle-treated, non-H2O2-exposed wells were treated as background cell death and this value is added to the % cell survival for each subsequent group.
See Hofgaard et al., 2006, for general procedures. […] After removing this media, 100 μL of media containing 3 μM SYTOX® Green nucleic acid stain was added, and the cells incubated for 2 h before fluorescence readings were obtained at 485Ex/538Em (Step 1). […]

The nature of data set [5]: Kinetics of decomposition of 7a and formation of 2a and 9 by UPLC-MS. In kind it is physicochemical. Conditions: 7a 20 μM, HPE-IAM 1 mM, ammonium bicarbonate buffer 50 mM with DTPA. As to the method:
An aliquot of the reaction mixture was withdrawn at the specified time and quenched with 1% formic acid. The curves are the calculated best fits to a single-exponential function. The pseudo-first order rate constants for 7a, 9 and 2a are 0.59±0.02, 0.57±002, and 0.58±0.03 min^−1, respectively;

Each structure is given as a SMILES string. Where “and” joins values, the source holds several entries; their conditions need not be identical. Equal values may be shown once. Entries after “also recorded” stand apart in the source; their conditions may differ.

Turning to `COC(=O)C(NC(C)=O)C(C)(C)SSC(=O)N(C)CCN` (centres unmarked) [Precursor 7b, 2-(((3-acetamido-4-methoxy-2-methyl-4-oxobutan-2-yl)disulfannecarbonyl)(methyl)amino)ethan-1-aminium], in data set [1] (7b 100 μM, glutathione 500 μM, pH 7.4 ammonium bicarbonate 50 mM with DTPA, 37° C., 45 min), the “byproduct 2b formation” value amounted to 42 ± 1 µM. Also, the “yield of byproduct 2b” value in data set [1] (in the presence of GSH, pH 7.4) was found to be 42%. Further, the “cytotoxicity toward H9c2 cells” value in the data set on H9c2 cells [2] is reported as “no toxicity; also recorded: not cytotoxic”. Also, the “protection against H2O2-mediated toxicity (CCK-8 viability)” value in the data set with H9c2 cells [3] is “dose-dependent attenuation”. Also, the “protection against H2O2-mediated toxicity (SYTOX)” value with H9c2 cells [4] was “protective effects”.

For the molecule `CNCCN(C)C(=O)SSC(C)(C)C(NC(C)=O)C(=O)OC` (centres unmarked) [Precursor 7a, 2-(((3-acetamido-4-methoxy-2-methyl-4-oxobutan-2-yl)disulfannecarbonyl)(methyl)amino)-N-methylethan-1-aminium], in data set [5], the “pseudo-first order rate constant of RSS-HPE-AM 9 formation” value was 0.58 ± 0.02 min⁻¹ and 0.57 ± 002 min⁻¹; the “pseudo-first order rate constant of byproduct 2a formation” value was 0.57 ± 0.02 min⁻¹ and 0.58 ± 0.03 min⁻¹; the “pseudo-first order rate constant of precursor decomposition” value amounted to 0.59 ± 0.02 min⁻¹.

These data come from patent US11584712B2, “Alkylamine-substituted perthiocarbamates as dual precursors to hydropersulfide and carbonyl sulfide” (The Johns Hopkins University, priority 2020, dated 2023).
